# Laboratory results as given in paper PMC4760274, “Elongation factor 2 kinase promotes cell survival by inhibiting protein synthesis without inducing autophagy” (Cellular Signalling, 2016).
# Peptide text beside a SMILES is read from it. * marks the point of attachment. Cbz = O=C(OCc1ccccc1)*
# Assays:
# [1] = tested on: mTORC1 signalling in HCT116 cells; experiment: mTORC1 signalling in HCT116 cells (western blot); assay type: cell-based, human; settings: 24 h, Harringtonine 2 μg/mL, Fig. 1C
# Method: (§1) After treatment, cells were lysed in ice-cold lysis buffer containing 1% (v/v) Triton X-100 (215680010, Acros Organics), 50 mM Tris (T6066-1KG, Sigma-Aldrich)–HCl (258148-2.5 L, Sigma-Aldrich) pH 7.4, 50 mM NaCl (BP358-212, Fisher Scientific), 0.2 mM EDTA (BP120-500, Fisher Scientific), 0.2 mM EGTA (E1102, Melford), 50 mM β-glycerophosphate (G9422, Sigma-Aldrich), 1 mM Na3VO4 (S6508, Sigma-Aldrich), 15 mM β-mercaptoethanol (125472500, Acros Organics) and 1 × protease inhibitor cocktail (5056489001, Roche). Lysates were spun at 16,000 × g for 10 min at 4 °C; the supernatants were kept and total protein concentration was quantified by Bradford assay following the manufacturer's instructions.
# (§2) These procedures were performed as described previously.
# (§3) Fig. 1 eEF2K helps cells withstand glucose starvation. […] Cells were then lysed and samples containing equal amounts of protein were analysed by western blot using the indicated antibodies. Values given below each lane show quantitation of the signal for P-eEF2, corrected for the eEF2 signal from multiple experiments as in (A) expressed as P-eEF2 normalized to eEF2, mean ± SEM (control cells without treatment = 1; n = 3). […] Cells were lysed and caspase 3/7 activity was determined. […] Cell death was measured using CellTox Green® assay. […]
# [2] = tested on: P-eEF2 in HCT116 cells; experiment: eEF2 phosphorylation in HCT116 cells (western blot); assay type: cell-based, human; settings: 24 h, CHX 5 μg/mL or Harringtonine 2 μg/mL, Fig. 1C
# Method: as §1, §2, §3
# [3] = tested on: HCT116 cells; experiment: cell death markers in HCT116 cells (PARP cleavage, caspase 3/7 activity); assay type: cell-based, human; settings: CHX 5 μg/mL or Harringtonine 2 μg/mL, Fig. 1B, C
# Method: (§4) Caspase 3/7 assays (G8090, Promega) were performed according to the manufacturer's instructions. Briefly, 10,000 cells/well were plated overnight in a 96-well plate. Cells were treated as described in the figure legends for the indicated time period. To measure caspase 3/7 activity, 50 μL of caspase Glo 3/7 reagent was added to each well for 2 h with constant shaking at room temperature. Luminescence was measured using a BMG Labtech FLUOstar Optimi plate reader. Cytotoxicity was evaluated by CellTox Green® cytotoxicity assay (Promega). Briefly, 10,000 cells/well were plated overnight in a 96-well plate. Cells were treated as described in the figure legends for the indicated time period. Fluorescence was measured at 485–500 nmEx/520–530 nmEm using a BMG Labtech FLUOstar Optimi plate reader.
# as §3
# [4] = tested on: LC3II in MEFs; experiment: LC3 modification in MEFs (western blot); assay type: cell-based, mouse; settings: 24 h; for ratio of the two forms of LC3: WT MEFs, MK2206 5 μM or 2DG 10 mM, Fig. 3A
# Method: as §1, §2
# (§5) Fig. 3 Role of eEF2K in autophagy in mouse embryonic fibroblasts (MEFs). Wildtype (WT) and eEF2K^−/− (KO) MEFs were treated, where indicated, with MK2206 (MK) (5 μM) or 10 mM 2-deoxyglucose (2DG) or in medium lacking glucose (− Glc) for 24 h. Cells were then lysed and samples containing equal amounts of protein were analysed by western blot using the indicated antibodies. (B) Quantitation of data from multiple experiments as in (A) expressed as LC3II normalized to actin, mean ± SEM (control cells without treatment = 1; n = 3). (C) Wild-type (WT) and eEF2K^−/− (KO) MEFs were treated, where indicated, with rapamycin (50 nM) or AZD8055 (0.5 μM) and/or chloroquine (10 μM) for 24 h. Cells were then lysed and samples containing equal amounts of protein were analysed by western blot using the indicated antibodies. (D) Quantitation of data from multiple experiments as in (C) expressed as LC3II normalized to actin, mean ± SEM (control cells without treatment = 1; n = 3).
# [5] = tested on: P-eEF2 in WT MEFs; experiment: eEF2 phosphorylation in wild-type MEFs (western blot); assay type: cell-based, mouse; settings: MK2206 5 μM or 2DG 10 mM, 24 h, Fig. 3A
# Method: as §1, with “instructions. […]” for “instructions.”
# as §5, with “Wildtype (WT) and eEF2K^−/− (KO) MEFs were treated, where indicated, with MK2206 (MK) (5 μM) or 10 mM 2-deoxyglucose (2DG) or in medium lacking glucose (− Glc) for 24 h.” left out, “(C) Wild-type (WT) and eEF2K^−/− (KO) MEFs were treated, where indicated, with rapamycin (50 nM) or AZD8055 (0.5 μM) and/or chloroquine (10 μM) for 24 h.” left out
# [6] = tested on: P-eEF2 in A549 cells; experiment: eEF2 phosphorylation in A549 cells (western blot); assay type: cell-based, human; settings: for phosphorylation of eEF2: 16 h, 2DG 10 mM, rapamycin 100 nM, AZD8055 1 μM, MG132 10 μM, Fig. 2A
# Method: as §1, §2
# Cells were then treated with 10 mM 2-deoxyglucose (2DG), rapamycin (100 nM), AZD8055 (1 μM) or MG132 (10 μM) for 16 h. Cells were then lysed and samples containing equal amounts of protein were analysed by western blot using the indicated antibodies. Values given below each lane show quantitation of the signal for LC3II, corrected for the actin signal from multiple experiments as in (A) expressed as LC3II normalized to actin, mean ± SEM (control cells without treatment = 1; n = 3). (B) A549 cells were cultured as in (A) to induce eEF2K knockdown. A549 cells were transiently transfected with the GST-BHMT construct and maintained in full media in the presence or absence of AZD8055 (1 μM) for 16 h, in the presence of leupeptin and E64d. GST-BHMT was precipitated with glutathione agarose from the whole cell extracts (bottom panel). Values given below show the quantitation of data from multiple experiments as in (B) expressed as the level of BHMT fragment normalized to the control without IPTG, mean ± SEM (control cells without treatment = 1; n = 3). Values given below each lane show quantitation of the signal for P-eEF2, corrected for the eEF2 signal from multiple experiments as in (B) expressed as P-eEF2 normalized to eEF2, mean ± SEM (control cells without treatment = 1; n = 3). (C) Cells were treated as described in Supplemental Fig. S3, visualized by confocal microscopy and the rate of autophagosome–lysosome fusion was measured according to green/red fluorescence ratio which reflect the percentage of unfused LC3. Scale bar = 20 μm. (D) Data quantification of C, data are presented as means ± SEM. (n = 5) ***P < 0.001, obtained by two-way ANOVA (Dunnett's test). (E) Untransfected A549 cells were treated with AZD8055 and BafA1 as described in A, cell lysates were collected at T0, 1 and 3 h for immunoblotting analysis. Values given below each lane show quantitation of the signal for LC3II, corrected for the LC3I signal from multiple experiments as in (E) expressed as LC3II normalized to LC3I, mean ± SEM (control cells without treatment = 1; n = 3).
# [7] = tested on: A549 cells; experiment: cell death of A549 cells (CellTox Green assay); assay type: cell-based, human; settings: CHX 5 μg/mL
# Method: as §4, §3
# [8] = tested on: eEF2K levels in A549 cells; experiment: eEF2K protein levels in A549 cells (western blot); assay type: cell-based, human; settings: CHX 5 μg/mL, 24 h, Fig. 1E
# Method: as §1, §2, §3
# [9] = tested on: GST-BHMT cleavage (autophagic flux) in A549 cells; experiment: GST-BHMT cleavage assay in A549 cells; assay type: cell-based, human; settings: chloroquine, data not shown
# [10] = tested on: LC3II in A549 cells; experiment: LC3 modification in A549 cells (western blot); assay type: cell-based, human; settings: A549 with or without eEF2K knockdown; chloroquine 10 μM; 16 h; Fig. S1
# Method: as §1, §2
# Cells were then treated with 10 mM 2-deoxyglucose (2DG), rapamycin (100 nM), AZD8055 (1 μM) or MG132 (10 μM) for 16 h. Cells were then lysed and samples containing equal amounts of protein were analysed by western blot using the indicated antibodies. Values given below each lane show quantitation of the signal for LC3II, corrected for the actin signal from multiple experiments as in (A) expressed as LC3II normalized to actin, mean ± SEM (control cells without treatment = 1; n = 3). (B) A549 cells were cultured as in (A) to induce eEF2K knockdown. […] (D) Data quantification of C, data are presented as means ± SEM. […]
compound,measurement,setting,value
COC(=O)C[C@](O)(CCC(C)(C)O)C(=O)O[C@@H]1C(OC)=C[C@]23CCCN2CCc2cc4c(cc2[C@H]13)OCO4 [Harringtonine],effect on mTORC1 signalling,[1],very little
same,effect on eEF2 phosphorylation (p-eEF2),[2],no effect
same,cell survival in cells starved of glucose and treated with eEF2K inhibitor JAN-849,[3],restored cell survival
NC1(c2ccc(-c3nc4ccn5c(=O)[nH]nc5c4cc3-c3ccccc3)cc2)CCC1 [MK2206],ratio of the two forms of LC3,[4],shift in the ratio of the two forms of LC3 from the upper (LC3I) to the lower band
same,level of phosphorylation of eEF2,[5],increased the level of phosphorylation of eEF2
CC(C)C[C@@H](C=O)NC(=O)[C@H](CC(C)C)NC(=O)[C@H](CC(C)C)NC(=O)OCc1ccccc1 [MG132] (Cbz-Leu-Leu-Leu-aldehyde),phosphorylation of eEF2,[6],induced the phosphorylation of eEF2
"C[C@@H]1C[C@@H]([C@H](O)CC2CC(=O)NC(=O)C2)C(=O)[C@@H](C)C1 [CHX, cycloheximide]",effect on cell survival under control conditions,[7]; A549,adverse effect
same,death induced by glucose starvation,"[7]; A549 with eEF2K knockdown, 48 h, Fig. 1D",partially rescued
same,effect on eEF2 phosphorylation (p-eEF2),[2],modest decrease
same,levels of eEF2K,[8],decreased the levels of eEF2K
same,eEF2 phosphorylation,"[6]; CHX 5 μg/mL, 24 h, Fig. 1E",decrease in eEF2 phosphorylation
same,cell survival in cells starved of glucose and treated with eEF2K inhibitor JAN-849,[3],restored cell survival
CCN(CC)CCCC(C)Nc1ccnc2cc(Cl)ccc12 (stereo not drawn) [chloroquine],levels of modified LC3-II,"[4]; MEFs treated with rapamycin (50 nM) or AZD8055 (0.5 μM), chloroquine 10 μM, Fig. 3C",increased the levels of modified LC3-II
same,cleavage of GST-BHMT,[9],completely blocked
same,modified LC3,[10],increased modified LC3
"O=CC[C@@H](O)[C@H](O)[C@H](O)CO [2-DG, 2-deoxyglucose]",ratio of the two forms of LC3,[4],shift in the ratio of the two forms of LC3 from the upper (LC3I) to the lower band
same,phosphorylation of eEF2,[6],induced the phosphorylation of eEF2
same,level of phosphorylation of eEF2,[5],increased the level of phosphorylation of eEF2
